Results: PMC3230330 (Bioorganic & medicinal chemistry, 2011)
Like-named read-outs stand apart in the source and are kept apart here.

How the values were obtained:
BoNT/A LC [1] = target: T1, BoNT/A LC (Clostridium botulinum, UniProt P0DPI0); assay: biochemical; assay type: biochemical
Anthrax LF = Anthrax LF (Bacillus anthracis, UniProt P15917); assay: biochemical
BoNT/B LC = settings: cited from earlier work
BoNT/A LC [2] = target: T1, BoNT/A LC; assay type: biochemical
human MMP-1 = human MMP-1 (Homo sapiens, UniProt P03956); assay type: biochemical
BoNT/A LC [3] = target: T1, BoNT/A LC; assay type: biochemical; remark: listed apart in the source
human MMP-9 = human MMP-9 (Homo sapiens, UniProt P14780); assay type: biochemical
BoNT/A LC [4] = target: T1, BoNT/A LC; settings: cited from earlier work
human MMP-2 = human MMP-2 (Homo sapiens, UniProt P08253); assay type: biochemical
human MMP-2, sequence (P08253 110-660): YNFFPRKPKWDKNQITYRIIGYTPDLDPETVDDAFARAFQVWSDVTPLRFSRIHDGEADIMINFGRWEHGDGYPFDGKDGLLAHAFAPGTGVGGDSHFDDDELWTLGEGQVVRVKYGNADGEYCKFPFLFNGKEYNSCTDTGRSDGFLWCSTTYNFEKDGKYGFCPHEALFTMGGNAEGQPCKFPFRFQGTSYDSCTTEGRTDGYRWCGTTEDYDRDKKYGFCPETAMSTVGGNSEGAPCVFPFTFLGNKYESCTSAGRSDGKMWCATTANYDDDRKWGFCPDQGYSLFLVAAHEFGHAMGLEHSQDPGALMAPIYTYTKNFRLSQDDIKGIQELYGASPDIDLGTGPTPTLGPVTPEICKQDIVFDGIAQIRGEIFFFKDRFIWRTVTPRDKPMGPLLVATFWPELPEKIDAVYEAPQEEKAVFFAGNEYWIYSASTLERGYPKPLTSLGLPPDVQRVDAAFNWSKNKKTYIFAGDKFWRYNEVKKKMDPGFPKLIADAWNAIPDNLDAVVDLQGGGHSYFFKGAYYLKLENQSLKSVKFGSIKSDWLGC

Anthrax LF, sequence (P15917 34-809 limits assumed): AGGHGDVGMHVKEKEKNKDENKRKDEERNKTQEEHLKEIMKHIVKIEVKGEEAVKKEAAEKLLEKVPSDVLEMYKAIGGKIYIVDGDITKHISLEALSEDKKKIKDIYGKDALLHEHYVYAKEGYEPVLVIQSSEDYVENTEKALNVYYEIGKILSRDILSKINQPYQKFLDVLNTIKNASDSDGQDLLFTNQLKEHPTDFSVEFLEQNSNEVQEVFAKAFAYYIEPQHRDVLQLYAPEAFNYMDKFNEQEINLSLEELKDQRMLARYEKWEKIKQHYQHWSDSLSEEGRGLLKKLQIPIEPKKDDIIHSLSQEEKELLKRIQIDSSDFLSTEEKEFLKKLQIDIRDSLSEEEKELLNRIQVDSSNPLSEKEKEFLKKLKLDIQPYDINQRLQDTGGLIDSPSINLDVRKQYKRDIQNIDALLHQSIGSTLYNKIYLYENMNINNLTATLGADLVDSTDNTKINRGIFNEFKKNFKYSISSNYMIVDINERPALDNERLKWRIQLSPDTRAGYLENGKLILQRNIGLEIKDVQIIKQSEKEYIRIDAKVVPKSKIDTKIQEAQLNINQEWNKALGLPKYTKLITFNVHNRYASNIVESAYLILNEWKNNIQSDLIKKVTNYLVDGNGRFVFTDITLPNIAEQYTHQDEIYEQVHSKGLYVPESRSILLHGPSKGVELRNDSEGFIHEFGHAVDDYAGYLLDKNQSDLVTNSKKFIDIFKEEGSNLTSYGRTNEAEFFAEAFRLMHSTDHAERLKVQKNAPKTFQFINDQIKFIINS
T1 sequence (P0DPI0 2-448 limits assumed): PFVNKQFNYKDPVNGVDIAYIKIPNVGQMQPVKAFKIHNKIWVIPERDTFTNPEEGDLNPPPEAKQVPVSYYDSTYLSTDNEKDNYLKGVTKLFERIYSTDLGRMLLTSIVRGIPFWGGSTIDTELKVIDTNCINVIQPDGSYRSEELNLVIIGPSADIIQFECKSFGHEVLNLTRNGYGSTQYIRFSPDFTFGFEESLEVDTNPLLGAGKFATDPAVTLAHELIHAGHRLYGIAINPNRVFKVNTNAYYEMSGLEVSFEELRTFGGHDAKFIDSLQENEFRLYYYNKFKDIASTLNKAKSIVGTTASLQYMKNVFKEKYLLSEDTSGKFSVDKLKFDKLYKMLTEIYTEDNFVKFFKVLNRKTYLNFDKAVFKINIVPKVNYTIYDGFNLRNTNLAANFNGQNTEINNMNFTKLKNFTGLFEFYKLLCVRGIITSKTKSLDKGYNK
human MMP-1, sequence (P03956 100-469): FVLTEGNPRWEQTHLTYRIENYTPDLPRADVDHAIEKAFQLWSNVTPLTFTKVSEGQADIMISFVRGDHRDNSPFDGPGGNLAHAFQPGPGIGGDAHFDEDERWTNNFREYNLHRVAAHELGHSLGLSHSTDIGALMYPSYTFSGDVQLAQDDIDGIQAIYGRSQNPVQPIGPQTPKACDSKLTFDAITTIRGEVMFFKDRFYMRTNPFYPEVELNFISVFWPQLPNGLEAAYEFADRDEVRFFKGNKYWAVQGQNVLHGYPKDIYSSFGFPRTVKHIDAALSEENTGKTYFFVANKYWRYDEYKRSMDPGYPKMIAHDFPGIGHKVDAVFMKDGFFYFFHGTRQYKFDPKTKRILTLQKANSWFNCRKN
human MMP-9, sequence (P14780 94-707): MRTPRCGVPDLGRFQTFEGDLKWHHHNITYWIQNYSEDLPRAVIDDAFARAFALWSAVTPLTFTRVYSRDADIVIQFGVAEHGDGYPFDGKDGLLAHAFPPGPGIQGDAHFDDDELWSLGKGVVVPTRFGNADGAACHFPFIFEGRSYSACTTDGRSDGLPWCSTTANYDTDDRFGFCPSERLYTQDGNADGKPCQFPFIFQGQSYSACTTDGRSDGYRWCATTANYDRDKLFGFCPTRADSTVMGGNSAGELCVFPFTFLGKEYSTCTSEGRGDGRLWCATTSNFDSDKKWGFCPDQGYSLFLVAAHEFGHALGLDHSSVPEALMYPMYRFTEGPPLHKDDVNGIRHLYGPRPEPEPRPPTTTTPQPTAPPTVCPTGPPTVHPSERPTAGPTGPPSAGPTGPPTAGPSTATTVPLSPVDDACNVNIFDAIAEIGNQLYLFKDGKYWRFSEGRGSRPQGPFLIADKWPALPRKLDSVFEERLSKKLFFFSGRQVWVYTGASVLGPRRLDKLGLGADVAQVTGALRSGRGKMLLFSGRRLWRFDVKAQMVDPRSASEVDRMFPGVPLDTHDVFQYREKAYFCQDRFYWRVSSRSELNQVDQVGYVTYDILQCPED

Which “BoNT/A LC inhibitory potency (in words)” value (BoNT/A LC [1]) does the source give for “2-(1-Cyano-2-phenylvinyl)benzimidazole [Compound 8a]” here?
Its value is “eliminated inhibitory potency”.

Which IC50 (Anthrax LF; read-out: Anthrax LF IC50) does the source give for “2-[1-Cyano-2-(2,4-dichloropyrimidin-3-yl)vinyl]-benzimidazole [Compound 10b]” here?
Its IC50 is over 100 µM.

What does the source list for `COc1ccc(/C=C(\C#N)c2nc3ccccc3[nH]2)cc1I` [Compound 4]?
BoNT/B LC FRET IC50 (BoNT/B LC): neither 4 nor 5 inhibited; manner of BoNT/A LC inhibition (BoNT/A LC [2]): time-dependent; MMP-1 IC50 (human MMP-1): neither compound inhibited; Inactivated by cysteine (BoNT/A LC [3]): inactivated; Inactivated by glutathione (BoNT/A LC [3]): inactivated; Inactivated by zinc chelation (BoNT/A LC [3]): neither are metal chelating agents; MMP-9 IC50 (human MMP-9): neither compound inhibited; kinetics with respect to the substrate (BoNT/A LC [4]): noncompetitive; MMP-2 IC50 (human MMP-2): neither compound inhibited

What does the source list for `N#C/C(=C\c1ccc(-c2cccs2)s1)c1nc2ccccc2[nH]1` [Compound 5, 3-(2,2'-Bithiophen-5-yl)-2-(1H-benzo[d]imidazol-2-yl)acrylonitrile]?
BoNT/B LC FRET IC50 (BoNT/B LC): neither 4 nor 5 inhibited; manner of BoNT/A LC inhibition (BoNT/A LC [2]): time-dependent; MMP-1 IC50 (human MMP-1): neither compound inhibited; Inactivated by cysteine (BoNT/A LC [3]): no significant, non-specific reactivity; Inactivated by glutathione (BoNT/A LC [3]): no significant, non-specific reactivity; Inactivated by zinc chelation (BoNT/A LC [3]): neither are metal chelating agents; MMP-9 IC50 (human MMP-9): neither compound inhibited; kinetics with respect to the substrate (BoNT/A LC [4]): noncompetitive; MMP-2 IC50 (human MMP-2): neither compound inhibited

Which “BoNT/A LC inhibitory potency (in words)” value (BoNT/A LC [1]) does the source give for `COc1ccc(/C=C(\C#N)c2nc3ccccc3[nH]2)cc1OC` [Compound 8f, 2-(1H-Benzo[d]imidazol-2-yl)-3-(3,4-dimethoxyphenyl)acrylonitrile] here?
Its value is “eliminated inhibitory potency”.

Which “BoNT/A LC inhibitory potency (in words)” value (BoNT/A LC [1]) does the source give for `COc1cc(/C=C(\C#N)c2nc3ccccc3[nH]2)cc(Cl)c1O` [Compound 8g, 2-[1-Cyano-2-(3-chloro-5-methoxy-4-hydroxyphenyl)vinyl]benzimidazole] here?
The value was “significantly decreased or diminished activity”.

Which results are given for `COc1cc(C=C(C#N)c2nc3ccccc3[nH]2)cc(Br)c1O` [Compound 8h, 2-[1-Cyano-2-(3-bromo-5-methoxy-4-hydroxyphenyl)vinyl]benzimidazole]?
BoNT/A LC inhibitory potency (in words) (BoNT/A LC [1]): significantly decreased or diminished activity; IC50 (BoNT/A LC [1]): 94 µM; IC50 (Anthrax LF): > 100 µM

With `N#C/C(=C\c1ccc(-c2ccccc2)cc1)c1nc2ccccc2[nH]1` [Compound 8i, 2-(1H-Benzo[d]imidazol-2-yl)-3-(biphenyl-4-yl)acrylonitrile] as the compound, how does the “BoNT/A LC inhibitory potency (in words)” value (BoNT/A LC [1]) read?
The value was “significantly lower potency with respect to 4”.

For `N#CC(=Cc1ccc(-n2ccnc2)cc1)c1nc2ccccc2[nH]1` [Compound 8j, 3-(4-(1H-Imidazol-1-yl)phenyl)-2-(1H-benzo[d]imidazol-2-yl)acrylonitrile], which “BoNT/A LC inhibitory potency (in words)” value (BoNT/A LC [1]) is on record?
Its value is “significantly lower potency with respect to 4”.

And the IC50 (BoNT/A LC [1])?
The IC50 was 73 µM.

What about the IC50 (Anthrax LF) of the same compound?
The IC50 was over 100 µM.

What does the source list for `COc1cc(C=C(C#N)c2nc3ccccc3[nH]2)cc(O)c1OC` [Compound 8k, 2-(1H-Benzo[d]imidazol-2-yl)-3-(3-hydroxy-4,5-dimethoxyphenyl)acrylonitrile]?
BoNT/A LC inhibitory potency (in words) (BoNT/A LC [1]): significantly decreased or diminished activity; IC50 (BoNT/A LC [1]): > 100 µM; IC50 (Anthrax LF): > 100 µM

For `Cc1ccc(/C=C(\C#N)c2nc3ccccc3[nH]2)s1` [Compound 12a, 2-(1H-Benzo[d]imidazol-2-yl)-3-(5-methylthiophen-2-yl)acrylonitrile], which “BoNT/A LC inhibitory potency (in words)” value (BoNT/A LC [1]) is on record?
Its value is “no BoNT/A LC inhibition”.

With `Cc1cc(/C=C(\C#N)c2nc3ccccc3[nH]2)sc1C` [Compound 12b, 2-(1H-Benzo[d]imidazol-2-yl)-3-(4,5-dimethylthiophen-2-yl)acrylonitrile] as the compound, how does the “BoNT/A LC inhibitory potency (in words)” value (BoNT/A LC [1]) read?
The value was “no BoNT/A LC inhibition”.

For `N#C/C(=C\c1cccs1)c1nc2ccccc2[nH]1` [Compound 12c, 2-(1H-Benzo[d]imidazol-2-yl)-3-(thiophen-2-yl)acrylonitrile], which “BoNT/A LC inhibitory potency (in words)” value (BoNT/A LC [1]) is on record?
Its value is “no BoNT/A LC inhibition”.

With `N#C/C(=C\c1ccc(-c2ccco2)s1)c1nc2ccccc2[nH]1` [Compound 12d, 2-(1H-Benzo[d]imidazol-2-yl)-3-(5-(furan-2-yl)thiophen-2-yl)acrylonitrile] as the compound, how does the “BoNT/A LC inhibitory potency (in words)” value (BoNT/A LC [1]) read?
Its value is “approximately two-fold less potent than 5”.

Which “BoNT/A LC inhibitory potency (in words)” value (BoNT/A LC [1]) does the source give for `N#C/C(=C\c1ccc(-c2cccs2)o1)c1nc2ccccc2[nH]1` [Compound 12e, 2-(1H-Benzo[d]imidazol-2-yl)-3-(5-(thiophen-2-yl)furan-2-yl)acrylonitrile hemiacetate] here?
Its value is “no activity was observed”.

With `N#C/C(=C\c1ccc(-c2cccs2)s1)c1cc2ccccc2[nH]1` [Compound 14a, 3-(2,2'-Bithiophen-5-yl)-2-(1H-indol-2-yl)acrylonitrile] as the compound, how does the “BoNT/A LC inhibitory potency (in words)” value (BoNT/A LC [1]) read?
Its value is “eliminated inhibitory potency”.

For `N#C/C(=C\c1ccc(-c2cccs2)s1)c1nc2ccccc2s1` [Compound 14b, 3-(2,2'-Bithiophen-5-yl)-2-(benzo[d]thiazol-2-yl)acrylonitrile], which “BoNT/A LC inhibitory potency (in words)” value (BoNT/A LC [1]) is on record?
The value was “eliminated inhibitory potency”.

For `N#C/C(=C\c1ccc(-c2cccs2)s1)c1nc2ccccc2o1` [Compound 14c, 3-(2,2'-Bithiophen-5-yl)-2-(benzo[d]oxazol-2-yl)acrylonitrile], which “BoNT/A LC inhibitory potency (in words)” value (BoNT/A LC [1]) is on record?
Its value is “eliminated inhibitory potency”.

For `N#C/C(=C\c1ccc(-c2cccs2)s1)c1ccc2ccccc2n1` [Compound 14d, 3-(2,2'-Bithiophen-5-yl)-2-(quinolin-2-yl)acrylonitrile], which “BoNT/A LC inhibitory potency (in words)” value (BoNT/A LC [1]) is on record?
Its value is “eliminated inhibitory potency”.

With `Cn1c(/C(C#N)=C/c2ccc(-c3cccs3)s2)[n+](C)c2ccccc21.[I-]` [Compound 15, 2-(2-(2,2'-Bithiophen-5-yl)-1-cyanovinyl)-1,3-dimethyl-1H-benzo[d]imidazol-3-ium iodide] as the compound, how does the “BoNT/A LC inhibitory potency (in words)” value (BoNT/A LC [1]) read?
The value was “detrimental to potency”.
